Measured values reported in ChEMBL document CHEMBL4308875, “Synthesis, antituberculosis studies and biological evaluation of new quinoline derivatives carrying 1,2,4-oxadiazole moiety” (Bioorg Med Chem Lett, 2019).
Converted amounts (≈) assume the structure as drawn.

Columns and labels:
[1] = tested on: Mycobacterium tuberculosis; assay: Antitubercular activity against Mycobacterium tuberculosis H37Rv after 15 days by turbidometric method; type: functional; conditions: 360 h
HepG2 = assay: Cytotoxicity against human HepG2 cells after 24 hrs by MTT assay; type: cell-based; conditions: HepG2, 24 h
[2] = Metabolic stability in human liver microsomes assessed as compound remaining at 1 uM after 60 mins in presence of G-6-P, G-6-PDH, MgCl2 and NADP+ by LC-MS/MS analysis (reference value: 100%)
[3] = Tmax in BALB/c mouse at 30 mg/kg, po; type: ADME, organism-based; conditions: in vivo
Acinetobacter baumannii = assay: Antibacterial activity against Acinetobacter baumannii ATCC 19606 after 15 days by turbidometric method; type: functional; conditions: ATCC 19606 = CIP 70.34 = JCM 6841
Escherichia coli = assay: Antibacterial activity against Escherichia coli ATCC 25922 after 15 days by turbidometric method; type: functional; conditions: ATCC 25922, 360 h
[4] = Metabolic stability in human liver microsomes assessed as compound remaining at 1 uM after 120 mins by LC-MS/MS analysis (reference value: 100%)
[5] = Half life in BALB/c mouse at 30 mg/kg, po; type: ADME, organism-based; conditions: in vivo
Klebsiella pneumoniae = assay: Antibacterial activity against Klebsiella pneumoniae ATCC 700603 after 15 days by turbidometric method; type: functional; conditions: Klebsiella pneumoniae, 700603, 360 h
[6] = AUC (infinity) in BALB/c mouse at 30 mg/kg, po; type: ADME, organism-based; design: dose 30 mg/kg, time infinity, route oral; conditions: in vivo
[7] = Metabolic stability in human liver microsomes assessed as compound remaining at 1 uM after 30 mins in presence of G-6-P, G-6-PDH, MgCl2 and NADP+ by LC-MS/MS analysis (reference value: 100%)
Enterococcus faecium = assay: Antibacterial activity against Enterococcus faecium ATCC 51559 after 15 days by turbidometric method; type: functional; conditions: ATCC 51559, 360 h
[8] = Metabolic stability in human liver microsomes assessed as compound remaining at 1 uM after 15 mins in presence of G-6-P, G-6-PDH, MgCl2 and NADP+ by LC-MS/MS analysis (reference value: 100%)
[9] = Extrapolated AUC in BALB/c mouse at 30 mg/kg, po; type: ADME, organism-based; conditions: in vivo
[10] = MRTlast in BALB/c mouse at 30 mg/kg, po; type: ADME, organism-based; conditions: in vivo
[11] = AUClast in BALB/c mouse at 30 mg/kg, po; type: ADME, organism-based; design: dose 30 mg/kg, route oral, time 0 - last; conditions: in vivo
Staphylococcus aureus = assay: Antibacterial activity against Staphylococcus aureus ATCC 33591 after 15 days by turbidometric method; type: functional; conditions: ATCC 33591, 360 h
[12] = Cmax in BALB/c mouse at 30 mg/kg, po; type: ADME, organism-based; design: dose 30 mg/kg, route oral; conditions: in vivo
Pseudomonas aeruginosa = assay: Antibacterial activity against Pseudomonas aeruginosa ATCC 15442 after 15 days by turbidometric method; type: functional; conditions: ATCC 15442, 360 h
[13] = Metabolic stability in human liver microsomes assessed as compound remaining at 1 uM after 120 mins in presence of G-6-P, G-6-PDH, MgCl2 and NADP+ by LC-MS/MS analysis (reference value: 100%)
[14] = tested on: Mycobacterium tuberculosis; assay: Bacteriostatic activity against Mycobacterium tuberculosis H37Rv assessed as colony forming units at 0.002 to 64 ug/ml measured day 7 post dose by time kill assay (reference value: 0 log10CFU/ml); type: functional
[15] = tested on: Mycobacterium tuberculosis; assay: Bacteriostatic activity against Mycobacterium tuberculosis H37Rv assessed as colony forming units at 0.002 to 64 ug/ml measured day 3 post dose by time kill assay (reference value: 0 log10CFU/ml); type: functional
[16] = tested on: Mycobacterium tuberculosis; assay: Bacteriostatic activity against Mycobacterium tuberculosis H37Rv assessed as colony forming units at 0.002 to 64 ug/ml measured day 21 post dose by time kill assay (reference value: 0 log10CFU/ml); type: functional
[17] = tested on: Mycobacterium tuberculosis; assay: Bacteriostatic activity against Mycobacterium tuberculosis H37Rv assessed as colony forming units at 0.002 to 64 ug/ml measured day 14 post dose by time kill assay (reference value: 0 log10CFU/ml); type: functional

CC(C)c1ccc(-c2nc(CN3CCN(c4ccnc5cc(-c6ccncc6)ccc45)CC3)no2)cc1
MIC [1]: 2 µg/mL (≈ 4.08 µM)

Fc1cc(F)cc(-c2ccc3c(N4CCN(Cc5noc(C6CCCC6)n5)CC4)ccnc3c2)c1
MIC [1]: 128 µg/mL (≈ 269 µM)

Fc1cc(F)cc(-c2nc(CN3CCN(c4ccnc5cc(Cl)ccc45)CC3)no2)c1
MIC [1]: > 128 µg/mL

Fc1cc(F)cc(-c2nc(CN3CCN(c4ccnc5cc(-c6ccncc6)ccc45)CC3)no2)c1
MIC [1]: 16 µg/mL (≈ 33 µM)

c1cncc(-c2ccc3c(N4CCN(Cc5noc(C6CCCC6)n5)CC4)ccnc3c2)c1
IC50 (HepG2): > 50 µM | remaining at 1 h, 1 µM [2]: 38% | Tmax [3]: 0.5 h | MIC (Acinetobacter baumannii): 512 µg/mL (≈ 1160 µM) | MIC (Escherichia coli): 256 µg/mL (≈ 581 µM) | remaining at 2 h, 1 µM [4]: 97.8% | half-life [5]: 0.75 h | MIC (Klebsiella pneumoniae): 256 µg/mL (≈ 581 µM) | AUC(0-inf) [6]: 20200 ng·h/mL | MIC [1]: 0.25 µg/mL (≈ 0.567 µM) | remaining at 0.5 h, 1 µM [7]: 54.8% | MIC (Enterococcus faecium): 64 µg/mL (≈ 145 µM) | remaining at 0.25 h, 1 µM [8]: 60.8% | %AUCextra [9]: 0.71% | MRT last [10]: 1.31 h | AUC(0-t) [11]: 20000 ng·h/mL | MIC (Staphylococcus aureus): 512 µg/mL (≈ 1160 µM) | Cmax [12]: 9600 ng/mL | MIC (Pseudomonas aeruginosa): 512 µg/mL (≈ 1160 µM) | remaining at 2 h, 1 µM [13]: 21.9%

Cc1cccc(-c2nc(CN3CCN(c4ccnc5cc(-c6cc(F)cc(F)c6)ccc45)CC3)no2)c1C
MIC [1]: 32 µg/mL (≈ 62.6 µM)

CN[C@H](CC(C)C)C(=O)N[C@H]1C(=O)N[C@@H](CC(N)=O)C(=O)N[C@H]2C(=O)N[C@H]3C(=O)N[C@H](C(=O)N[C@H](C(=O)O)c4cc(O)cc(O)c4-c4cc3ccc4O)[C@H](O)c3ccc(c(Cl)c3)Oc3cc2cc(c3O[C@@H]2O[C@H](CO)[C@@H](O)[C@H](O)[C@H]2O[C@H]2C[C@](C)(N)[C@H](O)[C@H](C)O2)Oc2ccc(cc2Cl)[C@H]1O [VANCOMYCIN]
MIC (Acinetobacter baumannii): 256 µg/mL (≈ 177 µM) | MIC (Escherichia coli): > 512 µg/mL | MIC (Klebsiella pneumoniae): 512 µg/mL (≈ 353 µM) | MIC (Enterococcus faecium): < 1 µg/mL | MIC (Pseudomonas aeruginosa): 512 µg/mL (≈ 353 µM)

c1cc(-c2ccc3c(N4CCN(Cc5noc(C6CCCC6)n5)CC4)ccnc3c2)ccn1
MIC [1]: 2 µg/mL (≈ 4.54 µM)

NNC(=O)c1ccncc1 [ISONIAZID]
MIC [1]: 0.015 µg/mL (≈ 0.109 µM)

Cc1cccc(-c2nc(CN3CCN(c4ccnc5cc(-c6cccnc6)ccc45)CC3)no2)c1C
IC50 (HepG2): > 100 µM | remaining at 1 h, 1 µM [2]: 31.7% | Tmax [3]: 0.5 h | MIC (Acinetobacter baumannii): > 32 µg/mL | MIC (Escherichia coli): > 32 µg/mL | remaining at 2 h, 1 µM [4]: 78% | half-life [5]: 0.94 h | MIC (Klebsiella pneumoniae): > 32 µg/mL | AUC(0-inf) [6]: 8310 ng·h/mL | MIC [1]: 0.25 µg/mL (≈ 0.525 µM) | remaining at 0.5 h, 1 µM [7]: 47.3% | MIC (Enterococcus faecium): > 32 µg/mL | remaining at 0.25 h, 1 µM [8]: 65.1% | %AUCextra [9]: 0.22% | MRT last [10]: 1.34 h | AUC(0-t) [11]: 8290 ng·h/mL | MIC (Staphylococcus aureus): > 32 µg/mL | Cmax [12]: 6410 ng/mL | MIC (Pseudomonas aeruginosa): > 32 µg/mL | remaining at 2 h, 1 µM [13]: 18.1%

N#Cc1cccc(-c2nc(CN3CCN(c4ccnc5cc(-c6ccncc6)ccc45)CC3)no2)c1
MIC [1]: 32 µg/mL (≈ 67.6 µM)

CC(C)c1ccc(-c2nc(CN3CCN(c4ccnc5cc(Cl)ccc45)CC3)no2)cc1
IC50 (HepG2): > 100 µM | remaining at 1 h, 1 µM [2]: 55.3% | Tmax [3]: 1 h | MIC (Acinetobacter baumannii): > 32 µg/mL | MIC (Escherichia coli): > 32 µg/mL | Emax [14]: 1.1 log10CFU/ml | remaining at 2 h, 1 µM [4]: 89.2% | half-life [5]: 1.63 h | MIC (Klebsiella pneumoniae): > 32 µg/mL | AUC(0-inf) [6]: 5330 ng·h/mL | MIC [1]: 0.5 µg/mL (≈ 1.12 µM) | remaining at 0.5 h, 1 µM [7]: 67.2% | MIC (Enterococcus faecium): > 32 µg/mL | remaining at 0.25 h, 1 µM [8]: 82% | Emax [15]: 0.2 log10CFU/ml | %AUCextra [9]: 1.17% | MRT last [10]: 1.5 h | AUC(0-t) [11]: 5270 ng·h/mL | MIC (Staphylococcus aureus): > 32 µg/mL | Emax [16]: 0.9 log10CFU/ml | Cmax [12]: 2500 ng/mL | Emax [17]: 0.9 log10CFU/ml | MIC (Pseudomonas aeruginosa): > 32 µg/mL | remaining at 2 h, 1 µM [13]: 39.7%

N#Cc1cccc(-c2nc(CN3CCN(c4ccnc5cc(-c6cc(F)cc(F)c6)ccc45)CC3)no2)c1
MIC [1]: > 256 µg/mL

COc1cc(OC)cc(-c2nc(CN3CCN(c4ccnc5cc(Cl)ccc45)CC3)no2)c1
MIC [1]: 32 µg/mL (≈ 68.7 µM)

COc1cc(OC)cc(-c2nc(CN3CCN(c4ccnc5cc(-c6ccncc6)ccc45)CC3)no2)c1
MIC [1]: > 128 µg/mL

CO[C@H]1/C=C/O[C@@]2(C)Oc3c(C)c(O)c4c(O)c(c(/C=N/N5CCN(C)CC5)c(O)c4c3C2=O)NC(=O)/C(C)=C\C=C\[C@H](C)[C@H](O)[C@@H](C)[C@@H](O)[C@@H](C)[C@H](OC(C)=O)[C@@H]1C [RIFAMPIN]
Emax [14]: 6.2 log10CFU/ml | MIC [1]: 0.03 µg/mL (≈ 0.0365 µM) | Emax [15]: 4.2 log10CFU/ml | Emax [16]: 6.3 log10CFU/ml | Emax [17]: 6.2 log10CFU/ml

Fc1cc(F)cc(-c2ccc3c(N4CCN(Cc5noc(-c6cc(F)cc(F)c6)n5)CC4)ccnc3c2)c1
MIC [1]: 64 µg/mL (≈ 123 µM)

Cc1cccc(-c2nc(CN3CCN(c4ccnc5cc(-c6ccncc6)ccc45)CC3)no2)c1C
MIC [1]: 2 µg/mL (≈ 4.2 µM)

N#Cc1cccc(-c2nc(CN3CCN(c4ccnc5cc(Cl)ccc45)CC3)no2)c1
MIC [1]: 64 µg/mL (≈ 149 µM)

O=C(O)c1cn(C2CC2)c2cc(N3CCNCC3)c(F)cc2c1=O [CIPROFLOXACIN]
MIC (Acinetobacter baumannii): < 1 µg/mL | MIC (Escherichia coli): 0.007 µg/mL (≈ 0.0211 µM) | MIC (Klebsiella pneumoniae): < 1 µg/mL | MIC (Enterococcus faecium): 8 µg/mL (≈ 24.1 µM) | MIC (Staphylococcus aureus): < 1 µg/mL | MIC (Pseudomonas aeruginosa): < 1 µg/mL

COc1ccc(CCN2CCC(Nc3nc4ccccc4n3Cc3ccc(F)cc3)CC2)cc1 [ASTEMIZOLE]
IC50 (HepG2): 7.97 µM

CC(C)c1ccc(-c2nc(CN3CCN(c4ccnc5cc(-c6cccnc6)ccc45)CC3)no2)cc1
IC50 (HepG2): > 100 µM | remaining at 1 h, 1 µM [2]: 40.1% | Tmax [3]: 0.5 h | MIC (Acinetobacter baumannii): > 32 µg/mL | MIC (Escherichia coli): > 32 µg/mL | remaining at 2 h, 1 µM [4]: 76.5% | half-life [5]: 1.05 h | MIC (Klebsiella pneumoniae): > 32 µg/mL | AUC(0-inf) [6]: 11900 ng·h/mL | MIC [1]: 0.25 µg/mL (≈ 0.51 µM) | remaining at 0.5 h, 1 µM [7]: 56.8% | MIC (Enterococcus faecium): > 32 µg/mL | remaining at 0.25 h, 1 µM [8]: 74.1% | %AUCextra [9]: 0.6% | MRT last [10]: 1.38 h | AUC(0-t) [11]: 11900 ng·h/mL | MIC (Staphylococcus aureus): > 32 µg/mL | Cmax [12]: 7440 ng/mL | MIC (Pseudomonas aeruginosa): > 32 µg/mL | remaining at 2 h, 1 µM [13]: 23%

COc1cc(OC)cc(-c2nc(CN3CCN(c4ccnc5cc(-c6cc(F)cc(F)c6)ccc45)CC3)no2)c1
MIC [1]: 256 µg/mL (≈ 471 µM)

Clc1ccc2c(N3CCN(Cc4noc(C5CCCC5)n4)CC3)ccnc2c1
MIC [1]: 32 µg/mL (≈ 80.4 µM)

Cc1cccc(-c2nc(CN3CCN(c4ccnc5cc(Cl)ccc45)CC3)no2)c1C
MIC [1]: 64 µg/mL (≈ 147 µM)

CC(C)c1ccc(-c2nc(CN3CCN(c4ccnc5cc(-c6cc(F)cc(F)c6)ccc45)CC3)no2)cc1
MIC [1]: 32 µg/mL (≈ 60.9 µM)
